From patent publication US8710233B2 (Gruenenthal GmbH, priority 2005, dated 2014)
Where two headings read alike, the source gives them in different places.

Key:
Type in all cases: cell-based
[1] = biological target: T1, vanilloid receptor 1 (VR1/TRPV1) of the rat species (Rattus norvegicus, UniProt O35433); assay: FLIPR Ca2+ influx assay on rat dorsal root ganglia cells (pharmacological method I); settings: table 4, capsaicin
T1 construct: The spinal column is removed from decapitated rats; from tissue; host or cells: primary cells dissociated from rat dorsal root ganglia
How it was run: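 Primary rat dorsal root ganglion cells loaded with 2 μM Fluo-4, Ca2+ influx read on FLIPR as peak fluorescence. Triplicates, at least 3 independent experiments.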

vanilloid receptor (VR1) = biological target: T2, vanilloid receptor (VR1) (Homo sapiens, UniProt Q8NER1); assay: FLIPR Ca2+ influx assay on CHO K1 cells transfected with the VR1 gene (pharmacological method II); settings: table 4; capsaicin; read-out: Ki (human) Cap.
T2 construct: expressed in transfected cells; host or cells: CHO K1 cells (ECACC), stably transfected

VR1/TRPV1 receptor = VR1/TRPV1 receptor (Homo sapiens, UniProt Q8NER1); assay: IC50 (human) after pH stimulus; settings: for inhibition at 1 µM: ne = no effect; for inhibition at 1 µM / inhibition at 0.1 µM: read-out: inhibition in percent, IC50 (human) after pH stimulus; for IC50: table 4
VR1/TRPV1 receptor, sequence (Q8NER1 whole entry): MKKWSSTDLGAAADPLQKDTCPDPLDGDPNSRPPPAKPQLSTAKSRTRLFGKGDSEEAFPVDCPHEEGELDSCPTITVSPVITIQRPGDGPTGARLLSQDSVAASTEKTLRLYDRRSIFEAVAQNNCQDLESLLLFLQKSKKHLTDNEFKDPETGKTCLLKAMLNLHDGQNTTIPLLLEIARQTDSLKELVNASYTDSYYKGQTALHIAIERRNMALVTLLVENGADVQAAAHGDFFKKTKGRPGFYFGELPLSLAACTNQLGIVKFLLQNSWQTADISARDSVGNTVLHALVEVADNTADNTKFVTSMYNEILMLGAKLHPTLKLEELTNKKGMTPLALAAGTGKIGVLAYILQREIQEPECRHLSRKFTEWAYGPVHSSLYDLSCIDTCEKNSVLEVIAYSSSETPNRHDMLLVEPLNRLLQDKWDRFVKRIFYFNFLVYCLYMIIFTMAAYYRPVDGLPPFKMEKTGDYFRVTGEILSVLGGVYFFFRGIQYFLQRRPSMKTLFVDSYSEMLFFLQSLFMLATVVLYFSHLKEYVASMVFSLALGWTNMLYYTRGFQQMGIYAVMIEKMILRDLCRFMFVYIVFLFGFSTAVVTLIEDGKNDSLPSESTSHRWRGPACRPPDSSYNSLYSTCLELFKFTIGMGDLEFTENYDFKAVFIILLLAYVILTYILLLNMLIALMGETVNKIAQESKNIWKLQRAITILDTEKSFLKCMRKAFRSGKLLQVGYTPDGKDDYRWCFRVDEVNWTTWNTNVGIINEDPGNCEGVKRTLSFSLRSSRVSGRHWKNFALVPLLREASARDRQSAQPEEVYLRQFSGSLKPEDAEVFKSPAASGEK

T2 sequence (Q8NER1 whole entry): as above
T1 sequence (O35433 whole entry): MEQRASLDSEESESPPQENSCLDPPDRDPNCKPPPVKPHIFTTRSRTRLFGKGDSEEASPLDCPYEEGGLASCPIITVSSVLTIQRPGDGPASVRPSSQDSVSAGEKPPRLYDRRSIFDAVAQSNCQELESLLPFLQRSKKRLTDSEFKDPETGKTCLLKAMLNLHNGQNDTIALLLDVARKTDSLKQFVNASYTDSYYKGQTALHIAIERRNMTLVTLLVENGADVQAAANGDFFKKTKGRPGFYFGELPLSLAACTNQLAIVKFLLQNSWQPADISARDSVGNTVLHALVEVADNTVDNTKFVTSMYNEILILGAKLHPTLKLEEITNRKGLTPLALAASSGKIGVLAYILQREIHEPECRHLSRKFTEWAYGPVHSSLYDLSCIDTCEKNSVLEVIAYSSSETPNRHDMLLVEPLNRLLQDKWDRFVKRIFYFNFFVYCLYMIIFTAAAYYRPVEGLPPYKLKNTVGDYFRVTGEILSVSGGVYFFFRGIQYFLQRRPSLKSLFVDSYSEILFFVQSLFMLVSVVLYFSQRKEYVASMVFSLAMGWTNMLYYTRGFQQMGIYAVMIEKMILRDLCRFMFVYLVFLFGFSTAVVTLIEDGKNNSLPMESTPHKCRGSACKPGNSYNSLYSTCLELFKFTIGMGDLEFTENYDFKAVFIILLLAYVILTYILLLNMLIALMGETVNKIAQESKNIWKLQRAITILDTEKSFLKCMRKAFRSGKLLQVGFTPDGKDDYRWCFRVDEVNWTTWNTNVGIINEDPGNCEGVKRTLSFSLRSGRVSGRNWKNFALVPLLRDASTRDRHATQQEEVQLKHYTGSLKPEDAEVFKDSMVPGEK

Row | Ki ([1]; read-out: Ki (rat) Cap.) | Ki (vanilloid receptor (VR1)) | inhibition at 1 µM (VR1/TRPV1 receptor) | IC50 (VR1/TRPV1 receptor) | Ki ([1]; Ki (rat) Cap.) | inhibition at 0.1 µM (VR1/TRPV1 receptor) | Structure (SMILES)
1 | 3.2 nM | 2.1 nM | 69% |  |  |  | CC(C(=O)NCc1ccc(C(F)(F)F)nc1N1CCN(c2ncccc2Cl)CC1)c1ccc(NS(C)(=O)=O)c(F)c1 (stereo not shown) [Example 193, N-{2-[4-(3-chloro-pyridin-2-yl)-piperazin-1-yl]-6-trifluoromethyl-pyridin-3-ylmethyl}-2-(3-fluoro-4-methylsulfonamido-phenyl)-propionamide]
2 | 0.4 nM | 1.1 nM |  | 61 nM |  |  | Cc1cc(C(C)C(=O)NCc2ccc(C(F)(F)F)nc2N2CCC(C(F)(F)F)CC2)ccc1NS(C)(=O)=O (stereo not shown) [Example 195, N-(4,6′-bis-trifluoromethyl-3,4,5,6-tetrahydro-2H-[1,2′]bipyridinyl-3′-ylmethyl)-2-(4-methylsulfonamido-3-methyl-phenyl)-propionamide]
3 | 0.4 nM | 0.6 nM | 41% |  |  |  | Cc1cc(C(C)C(=O)NCc2ccc(C(F)(F)F)nc2N2CCC(C)CC2)ccc1NS(C)(=O)=O (stereo not shown) [Example 196, 2-(4-methylsulfonamido-3-methyl-phenyl)-N-(4-methyl-6′-trifluoromethyl-3,4,5,6-tetrahydro-2H-[1,2′]bipyridinyl-3′-ylmethyl)-propionamide]
4 | 0.4 nM | 1.5 nM |  | 97.3 nM |  |  | CCC1CCN(c2nc(C(F)(F)F)ccc2CNC(=O)C(C)c2ccc(NS(C)(=O)=O)c(F)c2)CC1 (stereo not shown) [Example 197, N-(4-ethyl-6′-trifluoromethyl-3,4,5,6-tetrahydro-2H-[1,2′]bipyridinyl-3′-ylmethyl)-2-(3-fluoro-4-methylsulfonamido-phenyl)-propionamide]
5 |  | 6.4 nM | 31% |  | 0.9 nM | 11% | CC(C(=O)NCc1ccc(C(F)(F)F)nc1Oc1ccccc1)c1ccc(NS(C)(=O)=O)c(F)c1 (stereo not shown) [Example 198, 2-(3-fluoro-4-methylsulfonamido-phenyl)-N-(2-phenoxy-6-trifluoromethyl-pyridin-3-ylmethyl)-propionamide]
6 | 1.6 nM | 1.4 nM |  | 31 nM |  |  | COCC1CCN(c2nc(C(F)(F)F)ccc2CNC(=O)C(C)c2ccc(NS(C)(=O)=O)c(F)c2)CC1 (stereo not shown) [Example 199, 2-(3-fluoro-4-methylsulfonamido-phenyl)-N-(4-methoxymethyl-6′-trifluoromethyl-3,4,5,6-tetrahydro-2H-[1,2′]bipyridinyl-3′-ylmethyl)-propionamide]
7 | 3.4 nM | 4.2 nM |  | 81 nM |  |  | CC(C(=O)NCc1ccc(C(F)(F)F)nc1N1CCC(c2ccc(F)cc2)CC1)c1ccc(NS(C)(=O)=O)c(F)c1 (stereo not shown) [Example 200, 2-(3-fluoro-4-methylsulfonamido-phenyl)-N-[4-(4-fluoro-phenyl)-6′-trifluoromethyl-3,4,5,6-tetrahydro-2H-[1,2′]bipyridinyl-3′-ylmethyl]-propionamide]
8 | 1.2 nM | 2.4 nM |  | 34 nM |  |  | CC(C(=O)NCc1ccc(C(F)(F)F)nc1N1CCN(c2ccccc2F)CC1)c1ccc(NS(C)(=O)=O)c(F)c1 (stereo not shown) [Example 201, 2-(3-fluoro-4-methylsulfonamido-phenyl)-N-{2-[4-(2-fluoro-phenyl)-piperazin-1-yl]-6-trifluoromethyl-pyridin-3-ylmethyl}-propionamide]
9 |  | 29.5 nM | 30% |  | 24.8 nM | 16% | CC(C(=O)NCc1ccc(C(F)(F)F)nc1OCc1ccccn1)c1ccc(NS(C)(=O)=O)c(F)c1 (stereo not shown) [Example 202, 2-(3-fluoro-4-methylsulfonamido-phenyl)-N-[2-(pyridin-2-ylmethoxy)-6-trifluoromethyl-pyridin-3-ylmethyl]-propionamide]
10 | 3.3 nM | 3 nM | 24% |  |  | 0% | Cc1cc(C(C)C(=O)NCc2ccc(C(F)(F)F)nc2N2CCN(c3ccccc3)CC2)ccc1NS(C)(=O)=O (stereo not shown) [Example 203, 2-(4-methylsulfonamido-3-methyl-phenyl)-N-[2-(4-phenyl-piperazin-1-yl)-6-trifluoromethyl-pyridin-3-ylmethyl]-propionamide]
11 | 1.6 nM | 4 nM |  | 148 nM |  |  | Cc1cc(C(C)C(=O)NCc2ccc(C(F)(F)F)nc2OCc2ccccc2)ccc1NS(C)(=O)=O (stereo not shown) [Example 204, N-(2-benzyloxy-6-trifluoromethyl-pyridin-3-ylmethyl)-2-(4-methylsulfonamido-3-methyl-phenyl)-propionamide]
12 | 11.4 nM | 0.9 nM |  | 57.4 nM |  |  | CC(C(=O)NCc1ccc(C(F)(F)F)nc1N(C)c1ccccc1)c1ccc(NS(C)(=O)=O)c(F)c1 (stereo not shown) [Example 205, 2-(3-fluoro-4-methylsulfonamido-phenyl)-N-[2-(methyl-phenyl-amino)-6-trifluoromethyl-pyridin-3-ylmethyl]-propionamide]
13 |  | 3.2 nM |  | 66.1 nM | 0.7 nM |  | CC(C(=O)NCc1ccc(C(F)(F)F)nc1OCc1ccc(C(F)(F)F)cc1)c1ccc(NS(C)(=O)=O)c(F)c1 (stereo not shown) [Example 206, 2-(3-fluoro-4-methylsulfonamido-phenyl)-N-[6-trifluoromethyl-2-(4-trifluoromethyl-benzyloxy)-pyridin-3-ylmethyl]-propionamide]
14 | 0.8 nM | 0.8 nM |  | 38.6 nM |  |  | CC(C(=O)NCc1ccc(C(F)(F)Cl)nc1N1CCN(c2ccccc2)CC1)c1ccc(NS(C)(=O)=O)c(F)c1 (stereo not shown) [Example 207]
15 | 0.2 nM | 0.3 nM |  | 8 nM |  |  | CC(C(=O)NCc1ccc(C(F)(F)F)nc1N1CCC(C)(C)CC1)c1ccc(NS(C)(=O)=O)c(F)c1 (stereo not shown) [Example 210, N-(4,4-dimethyl-6′-trifluoromethyl-3,4,5,6-tetrahydro-2H-[1,2′]bipyridinyl-3′-ylmethyl)-2-(3-fluoro-4-methylsulfonamido-phenyl)-propionamide]
16 | 30.3 nM | 142 nM |  | 3440 nM |  |  | CC(C(=O)NCc1ccc(C(F)(F)F)nc1OCc1cccnc1)c1ccc(NS(C)(=O)=O)c(F)c1 (stereo not shown) [Example 211, 2-(3-fluoro-4-methylsulfonamido-phenyl)-N-[2-(pyridin-3-ylmethoxy)-6-trifluoromethyl-pyridin-3-ylmethyl]-propionamide]
17 | 3.6 nM | 4.2 nM | 33% |  |  | 11% | CC(C(=O)NCc1ccc(C(F)(F)F)nc1N1CCN(c2ncccc2C(F)(F)F)CC1)c1ccc(NS(C)(=O)=O)c(F)c1 (stereo not shown) [Example 212, 2-(3-fluoro-4-methylsulfonamido-phenyl)-N-{6-trifluoromethyl-2-[4-(3-trifluoromethyl-pyridin-2-yl)-piperazin-1-yl]-pyridin-3-ylmethyl}-propionamide]

Row | Structure (SMILES) | Ki ([1]; read-out: Ki (rat) Cap.) | Ki (vanilloid receptor (VR1)) | inhibition at 1 µM (VR1/TRPV1 receptor) | IC50 (VR1/TRPV1 receptor) | Ki ([1]; Ki (rat) Cap.) | inhibition at 0.1 µM (VR1/TRPV1 receptor)
18 | CC(C)COc1nc(C(F)(F)Cl)ccc1CNC(=O)C(C)c1ccc(NS(C)(=O)=O)c(F)c1 (stereo not shown) [Example 208, N-[6-(chloro-difluoro-methyl)-2-isobutoxy-pyridin-3-ylmethyl]-2-(3-fluoro-4-methylsulfonamido-phenyl)-propionamide] | 0.5 nM | 0.6 nM |  | 38.6 nM |  | 
